By IC50 is commonly meant the concentration that gives 50% inhibition.

SMILES strings stand for the structures. Bridge positions count the residues as written; N and C are the ends. Square brackets hold non-standard residues; d marks the D form. Peptide text beside a SMILES is read from it. * marks the point of attachment. Bip = N[C@@H](Cc1ccc(-c2ccccc2)cc1)C(=O)O; Phe(3-Me) = Cc1cccc(C[C@H](N)C(=O)O)c1; Val(3-OH) = CC(C)(O)[C@H](N)C(=O)O; Cha = N[C@@H](CC1CCCCC1)C(=O)O; Cit = NC(=O)NCCC[C@H](N)C(=O)O; Carboxymethyl = O=C(O)C*; Orn = NCCC[C@H](N)C(=O)O; Aun = NCCCCCCCCCCC(=O)O; Dab = NCC[C@H](N)C(=O)O; Dap = NC[C@H](N)C(=O)O

T1 sequence (Q15116 25-288): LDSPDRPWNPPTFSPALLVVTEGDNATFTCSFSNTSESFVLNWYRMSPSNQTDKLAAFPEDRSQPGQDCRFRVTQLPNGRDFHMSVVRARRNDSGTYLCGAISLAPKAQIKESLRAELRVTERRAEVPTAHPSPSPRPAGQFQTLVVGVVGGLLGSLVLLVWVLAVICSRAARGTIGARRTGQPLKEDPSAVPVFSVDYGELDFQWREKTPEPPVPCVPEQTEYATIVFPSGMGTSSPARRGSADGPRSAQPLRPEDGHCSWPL

The assay has as its target T1, PD-1/PD-L1 interaction (PE-labeled human PD-L1-Ig binding to Jurkat cell line over-expressing human PD-1) (Homo sapiens, UniProt Q15116).
T1 construct: expressed in transfected cells; host or cells: Jurkat
In words: Jurkat-PD-1 Cell Binding High-Content Screening Assay (CBA). Particulars: Jurkat cell line over-expressing human PD-1; PE-labeled PD-L1-Ig 20 nM final; read-out: Jurkat hPD1-PDL1 IC50. It is filed as cell-based. The procedure, abridged:
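Jurkat cells stably over-expressing human PD-1 were seeded in DMEM with 10% fetal calf serum and pre-incubated with compound for 2 h at 37° C. PE-labeled human PD-L1-Ig was then added at 20 nM final for 1 hour, after which cells were fixed with paraformaldehyde, Hoechst-stained and imaged by high-content microscopy.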
Turning to `Cc1cccc(C[C@@H]2NC(=O)[C@H](CC(=O)O)NC(=O)[C@H](Cc3ccc(OCC(=O)O)cc3)NC(=O)[C@H](CCCNC(=N)N)NC(=O)CSC[C@@H](C(=O)N[C@@H](CCCCN)C(=O)NCCCCCCCCCCC(=O)O)NC(=O)[C@H](CN)NC(=O)[C@H](C(C)(C)O)NC(=O)[C@H](CC3CCCCC3)NC(=O)[C@H](CCN)NC(=O)[C@@H](CC(C)C)NC(=O)[C@H](CCCN)NC(=O)[C@H](Cc3ccc(OCC(=O)O)cc3)NC(=O)[C@H](Cc3ccc(-c4ccccc4)cc3)NC(=O)[C@H](Cc3ccc(OCC(=O)O)cc3)NC2=O)c1` [Compound 2850] ({CH2CO}-RY(Carboxymethyl)D[Phe(3-Me)]Y(Carboxymethyl)[Bip]Y(Carboxymethyl)[Orn][dL][Dab][Cha][Val(3-OH)][Dap]CK[Aun]-OH; thioether N-14), the IC50 was found to be 0.0304 µM. The same measure for `Cc1cccc(C[C@@H]2NC(=O)[C@H](CC(=O)O)NC(=O)[C@H](Cc3ccc(OCC(=O)O)cc3)NC(=O)[C@H](CCCNC(=N)N)NC(=O)CSC[C@@H](C(=O)N[C@@H](CO)C(=O)N[C@@H](CO)C(=O)NCCCCCCCCCCC(=O)O)NC(=O)[C@H]([C@@H](C)O)NC(=O)[C@H](C(C)C)NC(=O)[C@H](CC3CCCCC3)NC(=O)[C@H](CCN)NC(=O)[C@@H](CC(C)C)NC(=O)[C@H](CCCN)NC(=O)[C@H](CCCNC(N)=O)NC(=O)[C@H](Cc3ccc(-c4ccccc4)cc3)NC(=O)[C@H](C(C)C)NC2=O)c1` [Compound 2851] ({CH2CO}-RY(Carboxymethyl)D[Phe(3-Me)]V[Bip][Cit][Orn][dL][Dab][Cha]VTCSS[Aun]-OH; thioether N-14): 0.0213 µM; for `Cc1cccc(C[C@@H]2NC(=O)[C@H](CC(=O)O)NC(=O)[C@H](Cc3ccc(OCC(=O)O)cc3)NC(=O)[C@H](CN)NC(=O)CSC[C@@H](C(=O)N[C@@H](CO)C(=O)N[C@@H](CO)C(=O)NCCCCCCCCCCC(=O)O)NC(=O)[C@H]([C@@H](C)O)NC(=O)[C@H](C(C)C)NC(=O)[C@H](CC3CCCCC3)NC(=O)[C@H](CCN)NC(=O)[C@@H](CC(C)C)NC(=O)[C@H](CCCN)NC(=O)[C@H](CCCNC(N)=O)NC(=O)[C@H](Cc3ccc(-c4ccccc4)cc3)NC(=O)[C@H](C(C)C)NC2=O)c1` [Compound 2852] ({CH2CO}-[Dap]Y(Carboxymethyl)D[Phe(3-Me)]V[Bip][Cit][Orn][dL][Dab][Cha]VTCSS[Aun]-OH; thioether N-14): 0.021 µM. The same measure for `Cc1cccc(C[C@@H]2NC(=O)[C@H](CC(=O)O)NC(=O)[C@H](Cc3ccc(OCC(=O)O)cc3)NC(=O)[C@H](CN)NC(=O)CSC[C@@H](C(=O)N[C@@H](CCN)C(=O)N[C@@H](CO)C(=O)N[C@@H](CO)C(=O)NCCCCCCCCCCC(=O)O)NC(=O)[C@H]([C@@H](C)O)NC(=O)[C@H](C(C)C)NC(=O)[C@H](CC3CCCCC3)NC(=O)[C@H](CCN)NC(=O)[C@@H](CC(C)C)NC(=O)[C@H](CCCN)NC(=O)[C@H](CCCNC(N)=O)NC(=O)[C@H](Cc3ccc(-c4ccccc4)cc3)NC(=O)[C@H](C(C)C)NC2=O)c1` [Compound 2853] ({CH2CO}-[Dap]Y(Carboxymethyl)D[Phe(3-Me)]V[Bip][Cit][Orn][dL][Dab][Cha]VTC[Dab]SS[Aun]-OH; thioether N-14): 0.0655 µM. On to `Cc1cccc(C[C@@H]2NC(=O)[C@H](CC(=O)O)NC(=O)[C@H](Cc3ccc(OCC(=O)O)cc3)NC(=O)[C@H](CCCNC(=N)N)NC(=O)CSC[C@@H](C(=O)N[C@@H](CCN)C(=O)NCCCCCCCCCCC(=O)O)NC(=O)[C@H]([C@@H](C)O)NC(=O)[C@H](C(C)C)NC(=O)[C@H](CC3CCCCC3)NC(=O)[C@H](CCN)NC(=O)[C@@H](CC(C)C)NC(=O)[C@H](CCCN)NC(=O)[C@H](CCC(N)=O)NC(=O)[C@H](Cc3ccc(-c4ccccc4)cc3)NC(=O)[C@H](Cc3ccc(OCC(=O)O)cc3)NC2=O)c1` [Compound 2854] ({CH2CO}-RY(Carboxymethyl)D[Phe(3-Me)]Y(Carboxymethyl)[Bip]Q[Orn][dL][Dab][Cha]VTC[Dab][Aun]-OH; thioether N-14), for which the IC50 was 0.0168 µM. Then `Cc1cccc(C[C@@H]2NC(=O)[C@H](CC(=O)O)NC(=O)[C@H](Cc3ccc(OCC(=O)O)cc3)NC(=O)[C@H](CCCNC(=N)N)NC(=O)CSC[C@@H](C(=O)N[C@@H](CCCN)C(=O)NCCCCCCCCCCC(=O)O)NC(=O)[C@H](CCC(N)=O)NC(=O)[C@H](C(C)C)NC(=O)[C@H](CC3CCCCC3)NC(=O)[C@H](CCN)NC(=O)[C@@H](CC(C)C)NC(=O)[C@H](CCN)NC(=O)[C@H](Cc3ccc(OCC(=O)O)cc3)NC(=O)[C@H](Cc3ccc(-c4ccccc4)cc3)NC(=O)[C@H](Cc3ccc(OCC(=O)O)cc3)NC2=O)c1` [Compound 2855] ({CH2CO}-RY(Carboxymethyl)D[Phe(3-Me)]Y(Carboxymethyl)[Bip]Y(Carboxymethyl)[Dab][dL][Dab][Cha]VQC[Orn][Aun]-OH; thioether N-14), with 0.0196 µM; and `Cc1cccc(C[C@@H]2NC(=O)[C@H](CC(=O)O)NC(=O)[C@H](Cc3ccc(OCC(=O)O)cc3)NC(=O)[C@H](CN)NC(=O)CSC[C@@H](C(=O)N[C@@H](CCCN)C(=O)NCCCCCCCCCCC(=O)O)NC(=O)[C@H](CCC(=O)O)NC(=O)[C@H](C(C)C)NC(=O)[C@H](CC3CCCCC3)NC(=O)[C@H](CCN)NC(=O)[C@@H](CC(C)C)NC(=O)[C@H](CCN)NC(=O)[C@H](Cc3ccc(OCC(=O)O)cc3)NC(=O)[C@H](Cc3ccc(-c4ccccc4)cc3)NC(=O)[C@H](Cc3ccc(OCC(=O)O)cc3)NC2=O)c1` [Compound 2856] ({CH2CO}-[Dap]Y(Carboxymethyl)D[Phe(3-Me)]Y(Carboxymethyl)[Bip]Y(Carboxymethyl)[Dab][dL][Dab][Cha]VEC[Orn][Aun]-OH; thioether N-14), with 0.0197 µM; and `Cc1cccc(C[C@@H]2NC(=O)[C@H](CC(=O)O)NC(=O)[C@H](Cc3ccc(OCC(=O)O)cc3)NC(=O)[C@H](CN)NC(=O)CSC[C@@H](C(=O)N[C@@H](CCCN)C(=O)NCCCCCCCCCCC(=O)O)NC(=O)[C@H](CCC(N)=O)NC(=O)[C@H](C(C)C)NC(=O)[C@H](CC3CCCCC3)NC(=O)[C@H](CCN)NC(=O)[C@@H](CC(C)C)NC(=O)[C@H](CCN)NC(=O)[C@H](Cc3ccc(OCC(=O)O)cc3)NC(=O)[C@H](Cc3ccc(-c4ccccc4)cc3)NC(=O)[C@H](Cc3ccc(OCC(=O)O)cc3)NC2=O)c1` [Compound 2857] ({CH2CO}-[Dap]Y(Carboxymethyl)D[Phe(3-Me)]Y(Carboxymethyl)[Bip]Y(Carboxymethyl)[Dab][dL][Dab][Cha]VQC[Orn][Aun]-OH; thioether N-14), with 0.035 µM. With `Cc1cccc(C[C@@H]2NC(=O)[C@H](CC(=O)O)NC(=O)[C@H](Cc3ccc(OCC(=O)O)cc3)NC(=O)[C@H](CN)NC(=O)CSC[C@@H](C(=O)N[C@@H](CCN)C(=O)NCCCCCCCCCCC(=O)O)NC(=O)[C@H](CCCN)NC(=O)[C@H](C(C)C)NC(=O)[C@H](CC3CCCCC3)NC(=O)[C@H](CCN)NC(=O)[C@@H](CC(C)C)NC(=O)[C@H](CCCN)NC(=O)[C@H](Cc3ccc(OCC(=O)O)cc3)NC(=O)[C@H](Cc3ccc(-c4ccccc4)cc3)NC(=O)[C@H](Cc3ccc(O)cc3)NC2=O)c1` [Compound 2858] ({CH2CO}-[Dap]Y(Carboxymethyl)D[Phe(3-Me)]Y[Bip]Y(Carboxymethyl)[Orn][dL][Dab][Cha]V[Orn]C[Dab][Aun]-OH; thioether N-14), the IC50 came to 0.0119 µM.

Values taken from patent publication US20260022142A1, “MACROCYCLIC IMMUNOMODULATORS” (Bristol-Myers Squibb Company, priority 2022, published 2026).
